# Reference: patent US8937091B2 (Japan Science and Technology Agency, priority 2009, dated 2015)
# Columns and labels:
# [1] = tested on: IICR (IP3 induced calcium release) in CHO cells; test: Assay of IICR (IP3 induced calcium release)-inhibiting action; type: cell-based, Chinese hamster; settings: Cricetulus griseus, CHO, CHO cells, 10 μM ATP, read-out: IICR level (percentage of inhibition); for inhibition at 10 µM: test compound 10 μmol; for inhibition at 30 µM: test compound 30 μmol; for inhibition at 100 µM: test compound 100 μmol
# Experimental: The extracellular fluid (i.e., medium) of cultured CHO cells was replaced by BSS containing calcium. One minute later, a test compound was added. Two minutes later, 10 μM ATP was added. The IICR-inhibiting action levels at different compound concentrations after the addition of ATP were determined as the percentage of inhibition (%) by evaluating the influence of the compound on the degree of increase in the intracellular calcium concentration.
# (§1) Hereafter, the numerals in parentheses written after the TG level, the SOCE level, and the IICR level correspond to the test compound concentrations. The number following the name of each title compound used in the Examples below represents a compound ID number designated arbitrarily by the present inventors.
# [2] = tested on: SOCE (store operated calcium entry) in CHO cells; test: Assay of SOCE (store operated calcium entry)-inhibiting action; type: cell-based, Chinese hamster; settings: Cricetulus griseus, CHO, CHO cells, thapsigargin, read-out: SOCE level (percentage of inhibition); for inhibition at 30 µM: test compound 30 μmol; for inhibition at 100 µM: test compound 100 μmol; for inhibition at 10 µM: test compound 10 μmol
# Experimental: The extracellular fluid (i.e., medium) of cultured Chinese hamster ovary (CHO) cells was replaced by BSS containing no calcium. One minute later, a test compound was added. Two minutes later, 1 μM thapsigargin was added to cause depletion of the intracellular calcium store. Nine minutes later, calcium chloride (final concentration: 2 mM) was added to the extracellular fluid. The SOCE-inhibiting action levels at different compound concentrations after the addition of calcium chloride were determined as the percentage of inhibition (%) by evaluating the influence of the compound on the degree of increase in the intracellular calcium concentration.
# as §1
Structure (SMILES),inhibition at 10 µM [1],inhibition at 30 µM [1],inhibition at 100 µM [1],inhibition at 30 µM [2],inhibition at 100 µM [2],inhibition at 10 µM [2]
"CN(CCC(=O)c1ccc(Cl)s1)Cc1ccccc1 [Example 279, 2-(N-methylbenzyl)aminoethyl-5-chloro-2-thienylketone]",20%,0%,40%,30%,40%,
"CC(C)(C)N(CCC(=O)c1ccc(I)s1)Cc1ccccc1 [Example 405, 2-(N-t-butyl-N-benzyl)aminoethyl-5-iodo-2-thienylketone]",78%,73%,35%,40%,50%,20%
"CC(C)(C)N(CCC(=O)c1ccc2c(c1)OCCO2)Cc1ccccc1 [Example 317, 2-(N-benzyl-t-butyl)aminoethyl-5,6-ethylenedioxy-2-phenylketone]",90%,95%,100%,10%,30%,10%
"CCc1nccnc1C(=O)CCN(CCO)CCO [Example 260, 2-(N-bis-hydroxyethyl)aminoethyl-3-ethyl-2-pyrazylketone]",20%,0%,20%,0%,0%,0%
"CC(C)N(CC(=O)c1ccccc1)Cc1ccccc1 [Example 168, 2-(N-isopropylbenzyl)aminomethyl-4-phenylketone]",0%,0%,70%,0%,50%,0%
"Cc1nc(C)c(C(=O)CCN(Cc2ccccc2)C(C)C)s1 [Example 219, 2-(N-benzylisopropyl)aminoethyl-5-(2,4-dimethylthiazolyl)ketone]",20%,90%,100%,0%,0%,0%
"CC(C)N(CCO)CCC(=O)c1ccncc1 [Example 155, 2-(N-hydroxyethylisopropyl)aminoethyl-4-pyridylketone]",20%,50%,80%,0%,0%,0%
"CN(CCO)CCC(=O)c1ccco1 [Example 235, 2-(N-2-hydroxyethylmethyl)aminoethyl-2-furylketone]",0%,90%,80%,0%,0%,0%
"CC(C)(C)N(CCO)CCC(=O)c1ccncc1 [Example 30, 2-(N-t-butyl-2-hydroxyethyl)aminoethyl-4-pyridylketone]",20%,10%,10%,0%,0%,0%
"CC(C)N(CCC(=O)N1CCCCCC1=O)Cc1ccccc1 [Example 200, 3-(N-benzylisopropyl)aminopropionylcaprolactam]",0%,0%,20%,0%,10%,0%
"CC(C)N(CCO)CCC(=O)c1ccc(C#N)cc1 [Example 309, 2-(N-hydroxylethylisopropyl)aminoethyl-4-cyanophenylketone]",0%,0%,20%,0%,10%,0%
O=C(CCNCCc1ncc[nH]1)c1cccnc1 [Example 176],10%,30%,50%,0%,0%,0%
"CC(C)N(CCC(=O)c1ccc[nH]1)Cc1ccccc1 [Example 110, 2-(N-isopropylbenzyl)aminoethyl-2-pyrroleketone]",20%,40%,100%,0%,0%,0%
"O=C(CCN(CCO)c1ccccc1)c1ccncc1 [Example 134, 2-(N-phenylhydroxyethyl)aminoethyl-4-pyridylketone]",20%,20%,30%,0%,0%,0%
"CCCCN(CCO)CCC(=O)c1ccco1 [Example 234, 2-(N-2-hydroxyethylbutyl)aminoethyl-2-furylketone]",0%,70%,80%,0%,10%,0%
"CCC(C)N(CCC(=O)c1ccc(Br)s1)C(C)CC (stereo not shown) [Example 339, 2-(N,N-di-sec-butyl)aminoethyl-5-bromo-2-thienylketone]",50%,80%,60%,8%,61%,0%
"Cc1ccc(C(=O)CCN(CCO)C(C)(C)C)o1 [Example 240, 2-(N-2-hydroxyethyl-t-butyl)aminoethyl-5-methyl-2-furylketone]",10%,30%,50%,0%,0%,0%
O=C(CCN1CCCCC1CO)c1ccc(Br)s1 (stereo not shown) [Example 350],60%,50%,70%,2%,3%,10%
"O=C(CCNCCCO)c1ccc(Br)s1 [Example 352, 2-(3-hydroxypropyl)aminoethyl-5-bromo-2-thienylketone]",30%,0%,0%,0%,34%,0%
"O=C(CCN(CCO)Cc1ccccc1)c1cccs1 [Example 245, 2-(N-benzyl-2-hydroxyethyl)aminoethyl-2-thiophenylketone]",0%,0%,0%,0%,0%,0%
"O=C(CCNC(c1ccccc1)C(O)c1ccccc1)c1ccco1 (stereo not shown) [Example 272, 2-(N-1,2-diphenyl-2-hydroxyethyl)aminoethyl-2-furylketone]",40%,20%,20%,20%,40%,
"CC(C)N(CCO)CCC(=O)c1nccs1 [Example 156, 2-(N-hydroxyethylisopropyl)aminoethyl-2-thiazolylketone]",20%,30%,60%,10%,20%,0%
"CC(C)N(CCC(=O)c1ccc(Cl)s1)C(C)C [Example 396, 2-diisopropylaminoethyl-5-chloro-2-thienylketone]",2%,72%,83%,40%,50%,20%
"CC(C)(C)N(CCO)CCC(=O)c1ccco1 [Example 123, 2-(N-t-butylhydroxyethyl)aminoethyl-2-furylketone]",20%,20%,70%,10%,20%,0%
"O=C(CCNc1ccccc1S)c1ccc(Br)s1 [Example 347, 2-(N-2-mercaptophenyl)aminoethyl-5-bromo-2-thienylketone]",0%,20%,50%,0%,0%,0%
CC(CNC12CC3CC(CC(C3)C1)C2)C(=O)c1ccc(F)cc1 (stereo not shown) [Example 191],0%,0%,0%,0%,0%,0%
"COC(=O)C(CSSCC(NCCC(=O)c1ccco1)C(=O)OC)NCCC(=O)c1ccco1 (stereo not shown) [Example 401, N,N-bis(2-furoylethyl)cystinemethylester]",31%,1%,57%,40%,50%,20%
